Columns and labels:
[1] = tested on: Akt phosphorylation on S473; settings: cited from earlier work
[2] = tested on: Akt phosphorylation on T308; settings: cited from earlier work
mTOR = mTOR (Homo sapiens, UniProt P42345); settings: cited from earlier work
MDA-MB-231 = settings: cited from earlier work
HCC1937 = settings: cited from earlier work
FKBP12 = FKBP12 (Homo sapiens, UniProt P62942); settings: cited from earlier work
[3] = tested on: MDA-MB-231 nude mice-derived xenografts; experiment: MDA-MB-231 xenografts in nude mice; type: in vivo; settings: Compound (1-1) 50 mg/kg BID po; everolimus 2 mg/kg 3 time a week ip; 4 weeks treatment
Procedure: In vivo assays were performed in 8-week-old female MDA-MB-231 nude mice-derived xenografts. 10×10^6 cells were injected, when tumor volume reached 100 mm^3, mice were randomized to 4 groups (n=9): 1) vehicle; 2) 50 mg/kg Compound (1-1) (BID, po); 3) 2 mg/kg of everolimus (3 time a week, ip); 4) combination Compound (1-1) and everolimus; 4 weeks treatment.
Symbols with • indicate significant differences between treatment vs. vehicle-treated mice (p<0.05). * indicates a significant difference in the tumor mass between the combination treated animals and the two single agent groups (*p<0.05, **p<0.01 and ***p<0.001). Results represent the mean±SEM (during the treatment period, n=9). Variation of animal body weight during treatment is illustrated in FIG. 18B. […] The T/C ratio was 39% after 10 days of combination treatment, with an optimal value of 21% on day 23. Compound (1-1) can be used for the treatment of TNBC, either alone or in combination with mTOR inhibitors.

PI3K/mTOR = settings: cited from earlier work
p110γ (PI3Kγ) = p110γ (PI3Kγ) (Homo sapiens, UniProt P48736); settings: cited from earlier work
Sequence of p110γ (PI3Kγ) (P48736 whole entry, species assumed): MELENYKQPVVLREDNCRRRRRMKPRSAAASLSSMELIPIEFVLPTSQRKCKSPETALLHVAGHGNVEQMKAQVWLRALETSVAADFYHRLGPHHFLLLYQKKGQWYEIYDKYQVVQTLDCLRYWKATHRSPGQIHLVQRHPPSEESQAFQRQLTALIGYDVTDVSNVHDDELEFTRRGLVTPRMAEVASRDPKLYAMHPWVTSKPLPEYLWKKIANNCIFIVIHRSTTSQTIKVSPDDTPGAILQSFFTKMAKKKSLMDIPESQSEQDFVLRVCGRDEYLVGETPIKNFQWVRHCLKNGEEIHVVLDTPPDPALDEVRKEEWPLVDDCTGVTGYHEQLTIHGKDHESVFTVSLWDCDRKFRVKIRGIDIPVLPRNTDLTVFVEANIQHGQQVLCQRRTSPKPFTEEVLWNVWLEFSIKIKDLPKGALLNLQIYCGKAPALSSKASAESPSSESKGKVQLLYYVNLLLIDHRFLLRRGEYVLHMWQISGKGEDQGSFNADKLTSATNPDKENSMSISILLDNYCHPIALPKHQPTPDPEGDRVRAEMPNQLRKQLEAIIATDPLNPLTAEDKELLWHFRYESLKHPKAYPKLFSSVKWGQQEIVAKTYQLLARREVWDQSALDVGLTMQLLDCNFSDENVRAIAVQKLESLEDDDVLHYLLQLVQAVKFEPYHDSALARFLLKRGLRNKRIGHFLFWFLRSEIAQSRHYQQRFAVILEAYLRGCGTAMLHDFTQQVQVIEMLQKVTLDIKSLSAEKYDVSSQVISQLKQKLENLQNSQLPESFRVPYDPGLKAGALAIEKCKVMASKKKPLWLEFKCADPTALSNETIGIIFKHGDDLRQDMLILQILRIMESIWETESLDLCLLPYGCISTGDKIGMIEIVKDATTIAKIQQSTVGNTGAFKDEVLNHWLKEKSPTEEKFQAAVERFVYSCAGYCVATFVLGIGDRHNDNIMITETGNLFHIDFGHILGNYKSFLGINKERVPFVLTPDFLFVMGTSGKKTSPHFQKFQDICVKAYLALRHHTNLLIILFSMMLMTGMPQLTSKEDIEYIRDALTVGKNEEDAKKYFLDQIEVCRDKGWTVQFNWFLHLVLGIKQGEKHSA

p110β (PI3Kβ) = p110β (PI3Kβ) (Homo sapiens, UniProt P42338); settings: cited from earlier work
Sequence of p110β (PI3Kβ) (P42338 whole entry, species assumed): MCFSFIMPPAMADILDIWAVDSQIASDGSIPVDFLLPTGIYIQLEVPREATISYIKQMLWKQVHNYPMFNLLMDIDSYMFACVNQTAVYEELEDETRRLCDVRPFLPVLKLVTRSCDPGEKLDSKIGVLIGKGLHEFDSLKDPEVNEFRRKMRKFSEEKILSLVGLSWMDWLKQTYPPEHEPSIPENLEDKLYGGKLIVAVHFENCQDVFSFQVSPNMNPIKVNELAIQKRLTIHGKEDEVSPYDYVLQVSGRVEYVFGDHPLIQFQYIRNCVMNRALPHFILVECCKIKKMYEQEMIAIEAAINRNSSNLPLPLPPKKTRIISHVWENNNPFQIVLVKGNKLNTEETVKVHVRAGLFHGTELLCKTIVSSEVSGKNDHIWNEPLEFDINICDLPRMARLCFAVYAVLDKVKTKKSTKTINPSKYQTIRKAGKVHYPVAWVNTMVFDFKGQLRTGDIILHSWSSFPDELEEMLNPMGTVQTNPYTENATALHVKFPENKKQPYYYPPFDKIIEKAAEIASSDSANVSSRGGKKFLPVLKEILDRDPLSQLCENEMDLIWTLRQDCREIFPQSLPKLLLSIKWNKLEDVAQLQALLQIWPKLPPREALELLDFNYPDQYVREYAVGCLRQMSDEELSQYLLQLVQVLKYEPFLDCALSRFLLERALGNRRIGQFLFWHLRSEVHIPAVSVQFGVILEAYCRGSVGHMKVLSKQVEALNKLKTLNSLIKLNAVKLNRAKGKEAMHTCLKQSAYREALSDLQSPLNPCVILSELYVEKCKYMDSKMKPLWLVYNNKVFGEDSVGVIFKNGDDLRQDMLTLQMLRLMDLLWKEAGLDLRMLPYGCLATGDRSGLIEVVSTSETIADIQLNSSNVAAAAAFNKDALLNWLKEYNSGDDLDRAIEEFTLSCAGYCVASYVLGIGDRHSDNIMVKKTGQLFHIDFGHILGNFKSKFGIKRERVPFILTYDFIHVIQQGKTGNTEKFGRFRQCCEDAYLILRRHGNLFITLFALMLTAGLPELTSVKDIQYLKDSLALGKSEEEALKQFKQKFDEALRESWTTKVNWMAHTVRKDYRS
Sequence of p110β (PI3Kβ) (P27986 whole entry partner, species assumed): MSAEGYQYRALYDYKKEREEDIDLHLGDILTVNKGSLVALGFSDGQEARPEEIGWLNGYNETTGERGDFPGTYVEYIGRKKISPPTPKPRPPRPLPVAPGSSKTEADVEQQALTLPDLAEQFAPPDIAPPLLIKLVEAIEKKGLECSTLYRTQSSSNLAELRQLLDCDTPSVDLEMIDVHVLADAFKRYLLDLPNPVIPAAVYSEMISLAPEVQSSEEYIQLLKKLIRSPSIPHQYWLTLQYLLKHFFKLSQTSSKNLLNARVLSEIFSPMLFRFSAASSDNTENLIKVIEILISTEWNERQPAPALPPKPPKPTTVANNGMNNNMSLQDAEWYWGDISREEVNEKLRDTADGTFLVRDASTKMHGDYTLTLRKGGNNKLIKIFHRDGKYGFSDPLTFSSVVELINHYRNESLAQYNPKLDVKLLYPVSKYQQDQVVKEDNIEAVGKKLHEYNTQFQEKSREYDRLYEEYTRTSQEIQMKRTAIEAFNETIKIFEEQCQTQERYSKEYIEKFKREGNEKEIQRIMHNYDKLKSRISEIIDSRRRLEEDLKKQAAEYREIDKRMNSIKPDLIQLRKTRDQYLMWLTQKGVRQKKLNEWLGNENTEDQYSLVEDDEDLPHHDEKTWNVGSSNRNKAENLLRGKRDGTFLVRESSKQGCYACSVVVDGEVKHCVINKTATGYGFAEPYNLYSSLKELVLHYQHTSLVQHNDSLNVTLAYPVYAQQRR

Sequence of FKBP12 (P62942 whole entry, species assumed): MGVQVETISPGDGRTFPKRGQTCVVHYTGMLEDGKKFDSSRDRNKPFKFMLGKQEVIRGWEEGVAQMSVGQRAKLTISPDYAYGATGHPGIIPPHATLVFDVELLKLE

In the case of `COc1ccc(-c2cc3c(C)nc(N)nc3n([C@H]3CC[C@H](OCCO)CC3)c2=O)cn1` [PF-04691502], the IC50 [1] is given as 3.8 nM and the IC50 [2] is given as 7.5 nM.

In the case of `CO[C@H]1CC2CC[C@@H](C)[C@@](O)(O2)C(=O)C(=O)N2CCCC[C@H]2C(=O)O[C@H]([C@H](C)C[C@@H]2CCC(OP(C)(C)=O)[C@H](OC)C2)CC(=O)[C@H](C)/C=C(\C)[C@@H](O)[C@@H](OC)C(=O)[C@H](C)C[C@H](C)/C=C/C=C/C=C/1C` (some centres unmarked) [Deforolimus, 42-(Dimethylphosphinate) rapamycin], the IC50 (mTOR) is listed as 0.2 nM.

In the case of `CC(=O)O[C@@]12CO[C@@H]1C[C@H](O)[C@@]1(C)C(=O)[C@H](O)C3=C(C)[C@@H](OC(=O)[C@H](O)[C@@H](NC(=O)OC(C)(C)C)c4ccccc4)C[C@@](O)([C@@H](OC(=O)c4ccccc4)[C@H]21)C3(C)C` [Docetaxel], the IC50 (MDA-MB-231) is listed as 3 nM and the IC50 (HCC1937) is listed as 7.2 nM.

For `CO[C@H]1C[C@@H]2CC[C@@H](C)[C@@](O)(O2)C(=O)C(=O)N2CCCC[C@H]2C(=O)O[C@H]([C@H](C)C[C@@H]2CC[C@@H](OCCO)[C@H](OC)C2)CC(=O)[C@H](C)/C=C(\C)[C@@H](O)[C@@H](OC)C(=O)[C@H](C)C[C@H](C)/C=C/C=C/C=C/1C` [Everolimus, reference compound], the IC50 (FKBP12) is listed as 1.6 to 2.4 nM and the “tumor mass with respect to vehicle-treated mice” value [3] is listed as “not active”.

In the case of `COc1ccc(-c2ccc3ncc4c(c3c2)n(-c2ccc(N3CCNCC3)c(C(F)(F)F)c2)c(=O)n4C)cn1` [NVP-BGT226], the IC50 (PI3K/mTOR) is listed as 1 nM.

In the case of `COc1cc(Nc2nc3ccccc3nc2NS(=O)(=O)c2ccc(NC(=O)c3ccc(C)c(OC)c3)cc2)cc(OC)c1` [XL765], the IC50 (mTOR) is listed as 157 nM.

In the case of GSK2126458, the Ki (p110γ (PI3Kγ)) is listed as 0.024 nM and the Ki (p110β (PI3Kβ)) is listed as 0.13 nM.

From patent US9968619B2, “Method of treating triple-negative breast cancer using thienotriazolodiazepine compounds” (ONCOETHIX GMBH, priority 2014, dated 2018)
